A short description of data set [1]: Inhibition against Alpha-maninosidase in jack bean. Further details: species or system Canavalia ensiformis.
Another data set concerns the target T1, Beta-galactosidase (Bos taurus, UniProt Q58D55).
T1 sequence (Q58D55 whole entry): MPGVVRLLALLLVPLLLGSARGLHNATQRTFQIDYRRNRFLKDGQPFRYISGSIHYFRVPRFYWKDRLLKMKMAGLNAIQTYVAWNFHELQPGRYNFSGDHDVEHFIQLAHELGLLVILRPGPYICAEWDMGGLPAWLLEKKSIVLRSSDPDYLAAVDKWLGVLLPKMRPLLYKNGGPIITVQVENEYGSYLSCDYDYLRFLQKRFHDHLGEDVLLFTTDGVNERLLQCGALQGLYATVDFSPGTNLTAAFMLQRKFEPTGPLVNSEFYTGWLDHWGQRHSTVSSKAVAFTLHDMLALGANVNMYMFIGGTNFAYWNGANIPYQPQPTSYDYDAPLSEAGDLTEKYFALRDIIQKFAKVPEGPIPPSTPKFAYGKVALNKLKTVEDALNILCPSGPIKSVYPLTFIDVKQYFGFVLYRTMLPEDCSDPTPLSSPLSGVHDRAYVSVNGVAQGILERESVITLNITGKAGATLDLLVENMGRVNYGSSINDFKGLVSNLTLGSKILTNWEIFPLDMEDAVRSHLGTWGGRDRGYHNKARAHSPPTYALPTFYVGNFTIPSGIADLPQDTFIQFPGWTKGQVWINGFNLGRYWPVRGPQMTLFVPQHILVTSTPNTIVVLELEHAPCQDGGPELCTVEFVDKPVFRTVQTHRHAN
Put plainly: Inhibition against beta-galactosidase in bovine liver; NI is No Inhibition at 1 mM.

Data set [2] can be described thus: pKa value was determined for the compound by 1H NMR titration. Type of data set: physicochemical.

4 molecules from ChEMBL document CHEMBL1128073, “Inhibition of glycosidases by substituted amidines” (Bioorg Med Chem Lett, 1995) can be followed below.

Molecules are shown by their SMILES.

For orientation: Ki means the dissociation constant of the complex between target and ligand, obtained from inhibition or displacement. A high value points to weaker binding. In turn, `c1ccc(CNC2=NCCCC2)cc1` returned a Ki in data set [1] of 14000 µM.
Same read-out and setting: the value for `OCC1CCCC(NCc2ccccc2)=N1` (configuration not stated) was 1400 µM.
Usually pKa stands for the pH at which an ionisable group is half protonated. A higher pKa goes with a group that holds its proton tightly. In the case of `OC[C@@H]1N=C(NCc2ccccc2)[C@@H](O)[C@@H](O)[C@@H]1O`, the inhibition constant (Ki) entry was “No inhibition” at Beta-galactosidase and 0.55 µM in data set [1]. In data set [2], this molecule showed a pKa of 10.
For `CO[C@H]1O[C@@H](CNC2=N[C@@H](CO)[C@@H](O)[C@H](O)[C@@H]2O)[C@@H](O)[C@H](O)[C@H]1O`, the inhibition constant (Ki) entry on Beta-galactosidase was “No inhibition”; in data set [1] it was 2.6 µM.
